Test results: patent publication US20130116284A1, “LIPOIC ACID AND NITROXIDE DERIVATIVES AND USES THEREOF” (RADIKAL THERAPEUTICS INC., priority 2010, published 2013)
“And” between values parts separate entries of the source, which are not always exact repeats. Equal entries are not always repeated.

How the values were obtained:
RAW cells = experiment: cytoprotection of RAW cells exposed to H2O2 (viability); details: 0.1 μM, same model system (not shown)
PARP = details: read-out: PARP inhibitor IC50; stated for the monofunctional PARP inhibitor, no method given; cited from earlier work
CD mice = experiment: rodent model of inflammation induced by zymosan (lung MPO, lung histology); format: in vivo; details: 60 mg/kg IP at 1 hour after zymosan 500 mg/kg IP; lung at 18 hours; vs. vehicle control
Experimental: In this study, we tested the potency of compound 1 (R-503) in treatment of an inflammation induced by zymosan, a glucan with repeating glucose units connected by β-1,3-glycosidic linkages.
Male CD mice (20-22 g) were randomly allocated into the following groups (n=10 per experimental arm): (i) zymosan+vehicle group, wherein zymosan (500 mg/kg) was administered via an intraperitoneal (IP) route; (ii) zymosan+compound 1 group, which was identical to the zymosan+vehicle group except for the administration of compound 1 (60 mg/kg IP) at 1 hour after zymosan challenge; and (iii) Sham+vehicle group, which was identical to the zymosan+vehicle group but vehicle was administered in place of zymosan. 18 hours after zymosan admininstration, lung samples were scored for histologic injury by a pathologist blinded to group assignment and neutrophil concentration was determined by measurement of myeloperoxidase (MPO) activity. The following morphological criteria were used for scoring: 0, normal lung; grade 1, minimal edema or infiltration of alveolar or bronchiolar walls; grade 3, moderate edema and inflammatory cell infiltration without obvious damage to lung architecture; grade 4, severe inflammatory cell infiltration with obvious damage to lung architecture. […]

Balb/c mice = experiment: murine model of chlorine inhalational lung injury (lung MPO, lung histology); format: in vivo; details: 30 mg/kg/dose IP q12h from 15 minutes after 400 ppm Cl2 for 30 minutes; lung at 24 hours; relative to placebo (D5W)
Experimental: In this study, we potency of compound 1 (R-503) in treatment of chlorine inhalational lung injury was tested.
Male Balb/c mice were exposed in a cylindrical glass chamber to 400 ppm Cl2 in air for 30 minutes. 15 minutes after the conclusion of Cl2 exposure, mice were initiated on a q12h regimen of compound 1 (30 mg/kg/dose IP in 0.5 ml dextrose 5% in water, D5W). At 24 hours, mice were euthanized and lung tissue was taken for examination of polymorphonuclear neutrophil (PMN) infiltration (as reflected by MPO) and lung histology (H&E staining). The following morphological criteria were used for scoring: 0, normal lung; grade 1, minimal edema or infiltration of alveolar or bronchiolar walls; grade 3, moderate edema and inflammatory cell infiltration without obvious damage to lung architecture; grade 4, severe inflammatory cell infiltration with obvious damage to lung architecture. As shown in FIGS. 4A-4B, compound 1 therapy reduced the elevation in MPO and histological lung damage by 82% and 73%, respectively, relative to placebo (D5W).

PARP-1 = PARP-1 (Homo sapiens, UniProt P09874); experiment: in vitro PARP inhibition potency assay, Universal calorimetric PARP-1 Assay Kit (Trevigen); format: biochemical; details: 10 point curve, 0.16 nM to 250 nM
Experimental: In this experiment, the PARP inhibition activity of compound 1 (R-503) was evaluated in in vitro potency assay using Universal calorimetric PARP-1 Assay Kit (Trevigen, Gaithersburg, Md.).

Sequence of PARP-1 (P09874 whole entry): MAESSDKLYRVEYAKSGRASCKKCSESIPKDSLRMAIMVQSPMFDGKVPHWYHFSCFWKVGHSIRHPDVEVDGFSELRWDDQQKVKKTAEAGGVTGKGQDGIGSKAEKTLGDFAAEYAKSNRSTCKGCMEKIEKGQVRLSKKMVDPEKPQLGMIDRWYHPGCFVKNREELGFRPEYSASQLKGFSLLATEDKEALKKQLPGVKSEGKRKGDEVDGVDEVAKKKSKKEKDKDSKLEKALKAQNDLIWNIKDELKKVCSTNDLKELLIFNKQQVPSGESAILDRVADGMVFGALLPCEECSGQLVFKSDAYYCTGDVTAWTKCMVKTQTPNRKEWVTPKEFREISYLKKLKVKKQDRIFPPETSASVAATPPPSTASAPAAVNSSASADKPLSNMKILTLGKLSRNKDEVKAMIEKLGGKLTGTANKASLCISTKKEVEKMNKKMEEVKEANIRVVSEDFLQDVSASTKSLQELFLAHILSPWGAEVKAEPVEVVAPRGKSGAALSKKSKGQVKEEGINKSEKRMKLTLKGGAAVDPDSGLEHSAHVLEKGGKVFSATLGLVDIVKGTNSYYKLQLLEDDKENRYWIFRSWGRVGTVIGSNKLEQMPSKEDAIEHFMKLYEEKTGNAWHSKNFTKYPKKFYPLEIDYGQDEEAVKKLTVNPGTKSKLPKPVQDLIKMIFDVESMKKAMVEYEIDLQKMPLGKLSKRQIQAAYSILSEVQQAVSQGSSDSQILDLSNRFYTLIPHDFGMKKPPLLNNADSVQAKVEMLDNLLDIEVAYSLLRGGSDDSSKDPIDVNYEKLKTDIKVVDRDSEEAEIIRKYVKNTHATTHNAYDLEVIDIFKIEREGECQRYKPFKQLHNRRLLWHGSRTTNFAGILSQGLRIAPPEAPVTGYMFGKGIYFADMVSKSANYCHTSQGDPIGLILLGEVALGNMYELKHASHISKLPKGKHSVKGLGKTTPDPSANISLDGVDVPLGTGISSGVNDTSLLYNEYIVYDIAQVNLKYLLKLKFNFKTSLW

O=C(O)CCCC[C@@H]1CCSS1 (racemic) [lipoic acid]
cytoprotective effect in RAW cells exposed to H2O2 (RAW cells): no beneficial effect

C[C@]1(c2nc3c(C(N)=O)cccc3[nH]2)CCCN1 [ABT-888]
IC50 (PARP): < 5 nM

NC(=O)c1cccc2[nH]c(CCCCC3CCSS3)nc12 (stereo not shown) [compound 1, 2-(4-(1,2-dithiolan-3-yl)butyl)-1H-benzo[d]imidazole-4-carboxamide]
reduction of elevation in lung MPO activity (CD mice): 65% | reduction of lung histologic injury (CD mice): 80% | reduction of elevation in lung MPO (Balb/c mice): 82% | reduction of histological lung damage (Balb/c mice): 73% | IC50 (PARP-1): 26.2 nM and 26 nM
